According to patent US10745405B2, “Glucuronide prodrugs of Janus kinase inhibitors” (THERAVANCE BIOPHARMA R&D IP, LLC, priority 2017, dated 2020):

Assays:
[1] = system: β-glucuronidase in rat colon feces; test: Rat colon fecal homogenate stability assay; assay type: in vitro ADME; details: male, Sprague Dawley, rat colon fecal supernatant-homogenate; in vitro half-life of the prodrug in rat fecal supernatant-homogenate, anaerobic, 10 μM substrate; read-out: T½
From the text: The compounds of the present invention contain a glucuronide prodrug moiety that is expected to be cleaved by β-glucuronidase enzyme to release a JAK inhibitor (e.g., ruxolitinib, baricitinib or oclacitinib). The objective of this assay was to determine the half-life for compounds of the present invention in the presence of β-glucuronidase in rat colon feces. Following sacrifice of a naïve male Sprague Dawley rat (˜300 g) by cardiac puncture exsanguination, the colon was ligated and removed to an anaerobic chamber (AS-580, Anaerobe Systems). The fecal content was removed within the chamber and was diluted 1:10 with phosphate buffer (1 gram fecal content to 9 mL phosphate buffer) and the resulting mixture was homogenized using a handheld Omni Tissue Master. The fecal homogenate was centrifuged at 2000 g for 10 min to remove bulk material and the supernatant was removed and used for the incubations. DMSO stock solutions (10 mM) of the test compounds and sulfasalazine (control) were prepared. Sulfasalazine was used as a positive control to confirm viability of the fecal supernatant-homogenate (see, e.g., Azad Khan et al., Clinical Science (1983) 64, 349-354). If the in vitro half-life (T½) for sulfasalazine in the fecal sample was less than 30 min, the fecal sample was deemed to be viable and in true anaerobic conditions. However, if the T½ for sulfasalazine was greater than 30 min, the fecal sample was typically contaminated with oxygen and was not viable. The final substrate concentration of each assay was 10 μM. Reactions were started by adding a 5 μL aliquot of diluted test compound stock solution into 300 μL of rat fecal supernatant-homogenate. At 0, 15, 50, 85 and 120 min post reaction initiation, a 50 μL aliquot was removed and added to a mixture of 200 μL of acetonitrile with 3% formic acid and an internal standard. All samples were centrifuged at 2000 g for 10 min after which 50 μL of supernatant was diluted into 150 μL of water for analysis on an LC-MS system. In vitro half-lives (T½) for the test compounds were calculated as follows: T½=0.693/elimination rate constant.

[2] = Oral pharmacokinetics in mouse assay; assay type: in vivo; details: liberated JAK inhibitor in colon tissue, AUC0-6 h, single PO dose 5 mg/kg of prodrug, male Balb/c mice
Description: When cleaved by β-glucuronidase enzyme, the compounds of the present invention release a JAK inhibitor (e.g., ruxolitinib, baricitinib or oclacitinib). The object of this assay was to determine JAK inhibitor exposure (AUC0-6 h) in colon tissue and plasma following oral dosing of compounds of the present invention in mice. Male Balb/c mice (n=2/time point) received a single PO oral gavage dose (5 mg/kg in 1:20 mixture of 5% DMSO and 1% HPMC) of the test compound. At 0.5, 2, 6 and 24 h post-dosing, mice were sacrificed via cardiac puncture exsanguination and blood samples were taken and placed into sample tubes (Microtainer, Becton, Dickinson and Company) containing sodium fluoride and then placed on ice. Plasma was obtained by centrifugation (Eppendorf centrifuge, 5804R) for 4 min at approximately 12,000 rpm at 4° C. The colons were removed from the exsanguinated mice and the colon fecal contents were gently removed. The colons were flushed with saline and patted dry. The colons were then homogenized in 3× volume of sterile water using a tissue homogenizer (Precellys homogenizer, Bertin Instruments) at approximately 4° C. All samples were stored at −80° C. for later bioanalysis. The concentration of JAK inhibitor (e.g., ruxolitinib, baricitinib or oclacitinib) in each sample was determined as follows: the plasma and colon homogenate samples were vortexed, combined with a 50 μL aliquot of rat plasma, extracted with 200 μL of ACN containing an internal standard and quantified against the internal standard by LC-MS. An area-under-the-concentration curve (AUC0-6 h) was calculated for plasma and colon test compound and liberated JAK inhibitor. A key parameter to assess suitability for localized delivery of the JAK inhibitor to the colon was the JAK inhibitor colon to plasma AUC ratio.

Row | half-life at 10 μM [1] [min] | Colon AUC [2] [µg·h/g] | SMILES
1 | < 5 | 17.3 | CCS(=O)(=O)N1CC(CC#N)(n2cc(-c3ncnc4c3ccn4C(=O)N(C)CCN(C)C(=O)OCc3ccc(O[C@@H]4O[C@H](C(=O)O)[C@@H](O)[C@H](O)[C@H]4O)c([N+](=O)[O-])c3)cn2)C1 [Compound VII-2, (2S,3S,4S,5R,6S)-6-(4-((((2-(4-(1-(3-(Cyanomethyl)-1-(ethylsulfonyl)azetidin-3-yl)-1H-pyrazol-4-yl)-N-methyl-7H-pyrrolo[2,3-d]pyrimidine-7-carboxamido)ethyl)-(methyl)carbamoyl)oxy)methyl)-2-nitrophenoxy)-3,4,5-trihydroxytetrahydro-2H-pyran-2-carboxylic Acid]
2 | < 5 | 13.5 | CNS(=O)(=O)C[C@H]1CC[C@H](N(C)c2ncnc3c2ccn3C(=O)N(C)CCN(C)C(=O)OCc2ccc(O[C@@H]3O[C@H](C(=O)O)[C@@H](O)[C@H](O)[C@H]3O)c([N+](=O)[O-])c2)CC1 [Compound VII-3, (2S,3S,4S,5R,6S)-3,4,5-Trihydroxy-6-(4-(((methyl(2-(N-methyl-4-(methyl((1r,4r)-4-((N-methylsulfamoyl)methyl)cyclohexyl)amino)-7H-pyrrolo[2,3-d]pyrimidine-7-carboxamido)ethyl)carbamoyl)oxy)methyl)-2-nitrophenoxy)tetrahydro-2H-pyran-2-carboxylic Acid]
3 | < 5 | 7.4 | CN(CCN(C)C(=O)n1ccc2c(-c3cnn([C@H](CC#N)C4CCCC4)c3)ncnc21)C(=O)OCc1ccc(O[C@@H]2O[C@H](C(=O)O)[C@@H](O)[C@H](O)[C@H]2O)c([N+](=O)[O-])c1 [Compound VII-1, (2S,3S,4S,5R,6S)-6-(4-((((2-(4-(1-((R)-2-Cyano-1-cyclopentylethyl)-1H-pyrazol-4-yl)-N-methyl-7H-pyrrolo[2,3-d]pyrimidine-7-carboxamido)ethyl)-(methyl)carbamoyl)oxy)methyl)-2-nitrophenoxy)-3,4,5-trihydroxytetrahydro-2H-pyran-2-carboxylic Acid]
